Laboratory results: publication PMC6152156 (Molecules : A Journal of Synthetic Chemistry and Natural …, 2017)

What was measured:
[1] = molecular target: T1, BuChE (Homo sapiens, UniProt P06276); assay: BuChE kinetic study (Lineweaver-Burk and Dixon plots); type: biochemical
T1 construct: BuChE was obtained from human plasma (purchased from Beijing Red Cross Blood Center China); tissue Beijing Red Cross Blood Center China; host or cells: human plasma, diluted 200-fold with 0.05 M PBS
Method: (§1) To have an insight into how structure modification affected the inhibitory activities, molecular docking and kinetics studies were performed for DL0410, compounds 6-1 and 7-6. After the docking parameters were set, the crystal poses of donepezil and N-((1-benzylpiperidin-3-yl)methyl)-N-(2-methoxyethyl) naphthalene-2-sulfonamide were first re-docked into the binding site pocket of AChE and BuChE, respectively. Donepezil is a mixed-type inhibitor of AChE used in the palliative treatment of AD [25]. N-((1-benzylpiperidin-3-yl)methyl)-N-(2-methoxyethyl) naphthalene-2-sulfonamide is a potent, selective, and reversible human BuChE inhibitor, which can improve memory, cognitive functions, and learning abilities. The root mean square deviation (RMSD) values between the docking and initial poses were 0.872 and 1.253, respectively, which implied that the docking models built by CDOCKER could reproduce the crystal binding model and were suitable for the AChE and BuChE system. DL0410 and two highly inhibitory compounds (compounds 6-1 and 7-6) were docked to the active pockets of AChE and BuChE. For AChE, these three compounds could dock to TRP86 of CAS via π-Alkyl interaction or electrostatic attraction, near the bottom of the active site gorge, and TRP286 of PAS via π-π stacking interaction, near its entrance (Figure 4). The value of –CDOCKER INTERACTION ENERGY was followed by compound 6-1 > compound 7-6 > DL0410. The dibenzofuran of compound 6-1 formed stronger π-π stacking interaction with TYR341 and TRP286, and the carbonyl formed hydrogen bond with TYR72. In addition, hydrogen bond interaction of compound 7-6 made it high inhibition for AChE. […] There existed more hydrogen bonds for compound 7-6, and a highly electronegative fluorine atom caused its strong interaction with GLY116. Therefore, the fluorine atom substitution and the structure of dibenzofuran made compounds 6-1 and 7-6 different from DL0410. Compound 7-6 formed more hydrogen bonds with AChE and BuChE. The structure of dibenzofuran caused the extension direction of compound 6-1 to change, which was more conducive to forming electrostatic attractive interactions. In silico results were consistent with the kinetics studies of AChE and BuChE. […] The inhibition kinetic data were analyzed by Lineweaver-Burk and Dixon plots. The Lineweaver-Burk plot provides a useful means of distinguishing among competitive inhibition, non-competitive inhibition, and mixed inhibition, whereas the merit of the Dixon plot is that one can expediently determine Ki from the kinetic data. […] The results of the kinetics studies also validated that the three compounds were, indeed, capable of binding to CAS and PAS of AChE/BuChE. The PAS site could […] their catalytic efficiency, which led to high inhibitory effects.
(§2) Figure 6 The Lineweaver-Burk plots of DL0410, compound 6-1 and compound 7-6 on AChE inhibitory activity (A–C). The Lineweaver-Burk plots of DL0410, compound 6-1 and compound 7-6 on BuChE inhibitory activity (D–F). Kinetic analysis of AChE and BuChE was performed by using three effective concentrations of DL0410, compound 6-1 and compound 7-6 (0.1, 0.3, 1 μM for AChE, and 0.3, 1, 3 μM for BuChE) with the incubation of five different substrate concentrations (1.25, 2.5, 5, 10, 20 mM for AChE, and 2, 4, 8, 16, 32 mM for BuChE). […] (n = 3; a = mM^−1; b = min/ΔA).
(§3) Figure 7 Ki values were determined by Dixon plots. […] Figure D–F presented the Dixon plots of DL0410, compound 6-1 and compound 7-6 on BuChE inhibitory activity, respectively. […] (n = 3; b = min/ΔA).
(§4) It is important to determinate the type of inhibition in an effort to understand the mechanism of inhibition and the binding sites of the inhibitor sites. […]

[2] = test system: APP/PS1 transgenic mice; parameters: method as in PMID 26476132; details: cited from earlier work
[3] = molecular target: T2, AChE (Rattus norvegicus, UniProt P37136); assay: AChE kinetic study (Lineweaver-Burk and Dixon plots); type: biochemical
T2 construct: AChE was derived from the SD rat brains by homogenizing the brain with 20-fold saline solution; from tissue; host or cells: SD rat brain homogenate (supernatant after 800 x g)
T2 sequence (P37136 32-614): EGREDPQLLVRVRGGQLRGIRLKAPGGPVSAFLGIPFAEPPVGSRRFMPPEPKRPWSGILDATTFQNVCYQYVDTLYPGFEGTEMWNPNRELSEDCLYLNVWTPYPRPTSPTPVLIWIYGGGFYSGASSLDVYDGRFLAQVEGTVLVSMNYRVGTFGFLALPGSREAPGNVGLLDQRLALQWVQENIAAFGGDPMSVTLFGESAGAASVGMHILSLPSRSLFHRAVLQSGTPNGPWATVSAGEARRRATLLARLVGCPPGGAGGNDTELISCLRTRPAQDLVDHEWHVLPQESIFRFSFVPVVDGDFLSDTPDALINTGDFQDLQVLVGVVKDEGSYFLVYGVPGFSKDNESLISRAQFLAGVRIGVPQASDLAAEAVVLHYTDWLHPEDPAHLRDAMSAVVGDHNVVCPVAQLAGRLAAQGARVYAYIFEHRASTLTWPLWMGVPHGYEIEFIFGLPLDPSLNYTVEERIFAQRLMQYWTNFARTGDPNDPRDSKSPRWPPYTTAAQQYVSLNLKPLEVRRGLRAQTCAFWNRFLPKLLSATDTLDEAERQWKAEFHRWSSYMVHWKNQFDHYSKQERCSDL
Method: as §1, §2, §3, §4

[4] = test system: APPsw-SY5Y cells; details: Akt/JNK signaling pathway; cited from earlier work
[5] = test system: Aβ-treated mice; parameters: method as in PMID 27498773; details: Aβ-treated mice model; cited from earlier work

T1 sequence (P06276 29-602): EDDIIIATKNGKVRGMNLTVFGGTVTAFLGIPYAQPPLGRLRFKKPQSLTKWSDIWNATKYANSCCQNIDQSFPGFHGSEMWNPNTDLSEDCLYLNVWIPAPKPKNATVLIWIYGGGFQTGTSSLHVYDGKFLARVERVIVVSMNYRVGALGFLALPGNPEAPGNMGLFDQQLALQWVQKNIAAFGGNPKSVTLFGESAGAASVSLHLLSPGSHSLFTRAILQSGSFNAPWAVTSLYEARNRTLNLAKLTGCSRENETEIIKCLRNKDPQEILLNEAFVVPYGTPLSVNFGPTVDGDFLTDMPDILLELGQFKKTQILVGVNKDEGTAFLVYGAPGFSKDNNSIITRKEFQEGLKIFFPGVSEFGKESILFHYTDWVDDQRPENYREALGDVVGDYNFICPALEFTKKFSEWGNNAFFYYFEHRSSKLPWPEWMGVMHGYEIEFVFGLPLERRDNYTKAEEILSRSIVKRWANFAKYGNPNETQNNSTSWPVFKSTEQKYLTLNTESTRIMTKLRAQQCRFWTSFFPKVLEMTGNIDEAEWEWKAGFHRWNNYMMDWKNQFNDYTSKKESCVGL

## O=C(CCN1CCCCC1)c1ccc(-c2ccc(C(=O)CCN3CCCCC3)cc2)cc1 [Compound 1-1]
[1]; Dixon plot, inhibitor 0.3, 1, 3 μM, five substrate concentrations, n = 3
  Ki: 1810 ± 80 nM
[1]; Lineweaver-Burk plot
  type of inhibition of BuChE: mixed-type
[2]
  learning and memory dysfunction: improved learning and memory dysfunction
[3]; Dixon plot, inhibitor 0.1, 0.3, 1 μM, substrate 1.25-20 mM, n = 3
  Ki: 1650 ± 140 nM
[3]; Lineweaver-Burk plot
  type of inhibition of AChE: mixed-type
[4]
  neuronal protection: exerted neuronal protection
[5]
  Aβ deposits in cerebral cortices: reduced Aβ deposits in cerebral cortices
